The values below come from patent US20090311246A1, “Method of Enhancing Remyelination in Demyelinating Diseases of the Central Nervous System” (priority 2008, published 2009).

Common to all, as to format: binding
One assay deals with Normal Rabbit Serum. Description: Indirect ELISA of normal rabbit serum/IgG against viral and myelin antigens. To be noted: 10^−2 diluted. (In an ELISA, binding on a coated surface is turned into a signal by an enzyme label.)
Assay [1] deals with Rabbit Anti-SFV polyclonal antibody. The experiment in a line: Indirect ELISA of rabbit anti-SFV polyclonal IgG against viral and myelin antigens. The following applies: for Rabbit Anti-SFV Ab, OD at 490 nm: 10^−2 diluted, indirect ELISA; for OD Difference: Rabbit Anti-SFV Ab minus Normal Rabbit Serum; for Immunoreactivity of IgG fraction of serum from rabbits immunized with UV-inactivated SFV: ELISA. On the procedure:
The total IgG fraction was commercially prepared (Strategic Biosolutions, Ramona, Calif.) from pooled sera of 3 rabbits immunized once with UV-inactivated SFV (A774 strain) emulsified in CFA and boosted 3 times with antigen in IFA at weeks 3, 5, and 7. The IgG fraction of the pooled antisera was purified by ion-exchange chromatography and contained 8.7 mg IgG/ml of PBS. Antibody activities to SFV and peptides of SFV, to E2, and to recombinant ® MOG and its peptides were confirmed by ELISA. Normal rabbit IgG, isolated from pooled normal rabbit sera by ion-exchange chromatography (Signa Chemical Co., St. Louis, Mo.), was dissolved in saline. Protein concentration was determined by the Bradford assay (Sigma), using normal rabbit IgG as the standard. The IgG solutions were diluted to 3 mg protein/ml in saline and sterilized by passage through a 0.22 μm filter (Millipore Corp., Bedford, Mass.).
(§1) To measure the antibody response of both WT and γδ KO mice against SFV and two of the peptides of the SFV envelope protein, E2, an indirect ELISA was performed. Sera were pooled from 4-6 SFV-infected WT, and 3 KO, mice on days 0, 7, 14, 21 and 35 pi. Briefly, Immunolon 2HB 96 well microtiter plates (VWR, Bridge Port, N.J.) were coated with 1 μg/well of each antigen in 100 μl/well carbonate buffer overnight at room temperature. After washing, the plates were blocked and serum samples were added. […] After washing, biotinylated goat anti-mouse Igs (BD Pharmingen, Torreyana, Calif.), Strepavidin conjugated to Horse Radish Peroxidase (Vector Laboratories, Burlingame, Calif.), and OPD substrate (Sigma, St. Louis, Mo.) were used, as previously described (4, 9). […] Values were considered to be positive when they were >0.3 OD units and exceeded the mean value plus three standard deviations for antibody response on day 0 pi of mice of the same strain.
The polyclonal rabbit anti SFV antibody was commercially prepared (Strategic Biosolutions, Ramona, Calif.) from pooled sera of 3 rabbits, immunized once with UV-inactivated SFV (A774 strain) emulsified in CFA and boosted 3 times with antigen in IFA at weeks 3, 5, and 7.

Assay [2] relates to sera from SFV-infected B6 mice. To be noted: for Dh / D0 (Ratio): OD of highest day (day 15 or 21) over day 0, SFV-infected sera; for Dh−D0 (difference): OD of highest day minus day 0, SFV-infected sera; for Net change in the levels of antibody (ΔOD), D7-9 / Net change in the levels of antibody (ΔOD), D14-16 / Net change in the levels of antibody (ΔOD), D21-23 / Net change in the levels of antibody (ΔOD), D31-35: SFV-infected mice sera, day 0 OD subtracted; for Net change in the levels of antibody (ΔOD), D7-9: days 7-9 pi; for Net change in the levels of antibody (ΔOD), D14-16: days 14-16 pi; for Net change in the levels of antibody (ΔOD), D21-23: days 21-23 pi; for Net change in the levels of antibody (ΔOD), D31-35: days 31-35 pi; for Reactivity of sera from SFV-infected B6 mice with the antigen in ELISA: vs day 0. On the procedure:
as §1, with “strain. […]” for “strain.”
In some instances day 0 OD values were high, thus making the differences appear small. Therefore, to account for such discrepancy, we also determined the ratio of the highest day (day 15 or 21) over day 0.

Assay [3] relates to sera from SFV-infected WT and γδ KO mice. The experiment in a line: ELISA of sera from SFV-infected WT and γδ KO mice against SFV, E2 peptides, PPD and rMOG. To be noted: WT and KO, days 7 to 35 pi.

For the molecule “NH2-MEVGWYRSPFSRVVHLYRNGK-OH (H-MEVGWYRSPFSRVVHLYRNGK-OH) [MOG 35-55, myelin oligodendrocyte glycoprotein (MOG) peptide 35-55]”, the “Normal Rabbit Serum, OD at 490 nm” value with Normal Rabbit Serum amounted to 0.007 OD. In addition, in assay [1], the “Rabbit Anti-SFV Ab, OD at 490 nm” value was 0.184 OD and the “OD Difference” value is recorded as 0.177 OD. Further, in assay [2], the “Dh / D0 (Ratio)” value worked out at 5.11; the “Dh−D0 (difference)” value is given as 0.362; the “Net change in the levels of antibody (ΔOD), D7-9” value (“Net change … (ΔOD), D7-9” for short) is on record as 055 ± 0.08 ΔOD; the “Net change in the levels of antibody (ΔOD), D14-16” value (from here on “Net change … (ΔOD), D14-16”) was 0.78 ± 0.08 ΔOD. Further, in assay [2], the “Net change in the levels of antibody (ΔOD), D21-23” value (“Net change … (ΔOD), D21-23” below) was 0.82 ± 0.05 ΔOD and the “Net change in the levels of antibody (ΔOD), D31-35” value (shortened to “Net change … (ΔOD), D31-35”) is 0.78 ± 0.07 ΔOD.
Consider “EGVNDNEEGFFSAR [FB, Fibrinopeptide B, 1-14, negative control peptide]”, for which, in assay [2], the “Dh / D0 (Ratio)” value is reported as 1.26; the “Dh−D0 (difference)” value is recorded as 0.068; the “Net change … (ΔOD), D7-9” value is on record as 0.06 ± 0.07 ΔOD; the “Net change … (ΔOD), D14-16” value was 0.05 ± 0.07 ΔOD. Further, in assay [2], the “Net change … (ΔOD), D21-23” value is recorded as 0.05 ± 0.08 ΔOD and the “Net change … (ΔOD), D31-35” value is recorded as 0.08 ± 0.09 ΔOD.
“THYGSLPQKSQR (GSGKDSHTRTTH) [MBP 64-75, myelin basic protein peptide 64-75]”: in assay [2], the “Dh / D0 (Ratio)” value was 2.93 and the “Dh−D0 (difference)” value is listed as 0.375.
As for “GKDSHTRTTHYGS [MBP 56-68, mouse MBP 56-68 peptide, mimicked by E2 137-151]”, in the assay on Normal Rabbit Serum, the “Normal Rabbit Serum, OD at 490 nm” value is reported as 0.195 OD. In assay [1], the “Rabbit Anti-SFV Ab, OD at 490 nm” value is 0.852 OD; the “Immunoreactivity of IgG fraction of serum from rabbits immunized with UV-inactivated SFV” value was “Cross-reactivity”; the “OD Difference” value was 0.691 OD. For the same molecule, in assay [2], the “Dh / D0 (Ratio)” value came to 5.37; the “Dh−D0 (difference)” value is on record as 0.824; the “Net change … (ΔOD), D7-9” value is 1.10 ± 0.04 ΔOD; the “Net change … (ΔOD), D14-16” value is recorded as 0.83 ± 0.10 ΔOD. In assay [2], the “Net change … (ΔOD), D21-23” value is listed as 1.07 ± 0.12 ΔOD; the “Net change … (ΔOD), D31-35” value was 0.55 ± 0.18 ΔOD; the “Reactivity of sera from SFV-infected B6 mice with the antigen in ELISA” value (“Reactivity of sera … in ELISA” for short) is listed as “reacted significantly”.
As to DEAELPSRISPGKNA [MOG 18-32], the “Normal Rabbit Serum, OD at 490 nm” value in the assay with Normal Rabbit Serum is recorded as 0.260 OD. For the same molecule, in assay [1], the “Rabbit Anti-SFV Ab, OD at 490 nm” value came to 0.907 OD; the “Immunoreactivity of IgG fraction of serum from rabbits immunized with UV-inactivated SFV” value is listed as “Cross-reactivity”; the “OD Difference” value worked out at 0.647 OD. Further, in assay [2], the “Dh / D0 (Ratio)” value was 3.2; the “Dh−D0 (difference)” value is on record as 0.919; the “Net change … (ΔOD), D7-9” value was 0.34 ± 0.31 ΔOD; the “Net change … (ΔOD), D14-16” value is reported as 0.75 ± 0.23 ΔOD. Moreover, in assay [2], the “Net change … (ΔOD), D21-23” value is 0.91 ± 0.15 ΔOD; the “Net change … (ΔOD), D31-35” value is 0.91 ± 0.36 ΔOD; the “Reactivity of sera … in ELISA” value is given as “reacted significantly”.

B1: MBP Protein: myelin basic protein (protein, UniProt P02686 1-304, looked up)
Myelin basic protein: MGNHAGKRELNAEKASTNSETNRGESEKKRNLGELSRTTSEDNEVFGEADANQNNGTSSQDTAVTDSKRTADPKNAWQDAHPADPGSRPHLIRLFSRDAPGREDNTFKDRPSESDELQTIQEDSAATSESLDVMASQKRPSQRHGSKYLATASTMDHARHGFLPRHRDTGILDSIGRFFGGDRGAPKRGSGKDSHHPARTAHYGSLPQKSHGRTQDENPVVHFFKNIVTPRTPPPSQGKGRGLSLSRFSWGAEGQRPGFGYGGRASDYKSAHKGFKGVDAQGTLSKIFKLGGRDSRSGSPMARR
As for B1, in assay [2], the “Dh / D0 (Ratio)” value was 2.42; the “Dh−D0 (difference)” value was 0.967; the “Net change … (ΔOD), D7-9” value is 0.53 ± 0.11 ΔOD; the “Net change … (ΔOD), D14-16” value is recorded as 1.04 ± 0.24 ΔOD. In addition, in assay [2], the “Net change … (ΔOD), D21-23” value is recorded as 1.12 ± 0.31 ΔOD; the “Net change … (ΔOD), D31-35” value is recorded as 1.00 ± 0.32 ΔOD; the “Reactivity of sera … in ELISA” value is recorded as “reacted significantly”.

B2: Bovine MBP: bovine myelin basic protein (protein)
chain: AAQKRPSQRSKYLASASTMDHARHGFLPRHRDTGILDSLGRFFGSDRGAPKRGSGKDGHHAARTTHYGSLPQKAQGHRPQDENPVVHFFKNIVTPRTPPPSQGKGRGLSLSRFSWGAEGQKPGFGYGGRASDYKSAHKGLKGHDAQGTLSKIFKLGGRDSRSGSPMARR
B2: the “Normal Rabbit Serum, OD at 490 nm” value with Normal Rabbit Serum stood at 0.283 OD. Further, in assay [1], the “Rabbit Anti-SFV Ab, OD at 490 nm” value is listed as 0.622 OD and the “OD Difference” value is given as 0.339 OD.

B3: rMOG: recombinant MOG (protein, UniProt Q16653 30-247, looked up)
Myelin-oligodendrocyte …: GQFRVIGPRHPIRALVGDEVELPCRISPGKNATGMEVGWYRPPFSRVVHLYRNGKDQDGDQAPEYRGRTELLKDAIGEGKVTLRIRNVRFSDEGGFTCFFRDHSYQEEAAMELKVEDPFYWVSPGVLVLLAVLPVLLLQITVGLIFLCLQYRLRGKLRAEIENLHRTFDPHFLRVPCWKITLFVIVPVLGPLVALIICYNWLHRRLAGQFLEELRNPF
As to B3, the “Normal Rabbit Serum, OD at 490 nm” value with Normal Rabbit Serum came to 0.213 OD. Also, in assay [3], the “Reactivity of sera from both SFV-infected WT and KO groups” value was “twice as the background level”. In assay [1], the “Rabbit Anti-SFV Ab, OD at 490 nm” value is listed as 0.359 OD and the “OD Difference” value is 0.146 OD.

B4: MOG Protein: myelin oligodendrocyte glycoprotein (protein, UniProt Q16653 30-247, looked up)
Myelin-oligodendrocyte …: GQFRVIGPRHPIRALVGDEVELPCRISPGKNATGMEVGWYRPPFSRVVHLYRNGKDQDGDQAPEYRGRTELLKDAIGEGKVTLRIRNVRFSDEGGFTCFFRDHSYQEEAAMELKVEDPFYWVSPGVLVLLAVLPVLLLQITVGLIFLCLQYRLRGKLRAEIENLHRTFDPHFLRVPCWKITLFVIVPVLGPLVALIICYNWLHRRLAGQFLEELRNPF
In the case of B4, in assay [2], the “Dh / D0 (Ratio)” value was 4.1; the “Dh−D0 (difference)” value is 0.89; the “Net change … (ΔOD), D7-9” value is 0.47 ± 0.21 ΔOD; the “Net change … (ΔOD), D14-16” value is reported as 0.84 ± 0.18 ΔOD. Also, in assay [2], the “Net change … (ΔOD), D21-23” value was 0.91 ± 0.11 ΔOD; the “Net change … (ΔOD), D31-35” value is reported as 0.96 ± 0.07 ΔOD; the “Reactivity of sera … in ELISA” value is given as “reacted significantly”.
